# Patent US20100215618A1, “NOVEL COMPOUNDS - 644” (Arrow Therapeutics Limited, priority 2009, published 2010)
# Where two headings read alike, the source gives them in different places.
# What was measured:
# [1] = system: HCV genotype 1a replicon cells Htat2ANeo; assay: 1a Replicon Assay (cell-based anti-NS5a ELISA); details: Hepatitis C virus, 72 h
# Protocol: HCV genotype la replicon cells Htat2ANeo (University of Texas), containing neomycin phosphotransferase fusion protein and EMCV-IRES driven HCV polyprotein with cell culture adaptive mutations, and control cells, Et2AN.
# Cells were cultured at 37° C./5% CO2 and split twice a week. G418 at 0.5 mg/ml and Blastocidin at 2 mg/ml were added to the culture medium but not the assay medium.
# The culture medium consisted of DMEM with […] glucose and Glutamax (Gibco 61965-026) supplemented with 1× non-essential amino acids (Invitrogen 11140-035), 0.5 mg/ml G418 (Invitrogen 10131-027), 2 mg/ml Blastocidin (PAA) and 10% is Australian foetal calf serum (Invitrogen 10099-141).
# Replicon and control cells were trypsinised and counted. Replicon cells were diluted to 90,000 cells/ml and 100 μl of this used to seed columns 2-4, […] and 10-12 of a black, clear bottom 96-well plate for every three compounds to be tested for IC50. Control cells were diluted to 60,000 cells/ml and 100 μl of this used to seed columns 1, 5 and 9 of the plate. Well H1 was left empty as the blank. Plates were then incubated at 37° C./5% CO2 for 24 h.
# On the following day compound dilutions were prepared in medium at twice their desired final concentration in a clear round bottomed plate.
# Controls and compounds were transferred from the dilution plate to the assay plates (containing the cells) at 100 μl/well in quadruplicate wells, one well containing control cells and 3 wells containing replicon cells.
# Exception: no compound was added to row H of the plate and 100 μl of 1% DMSO was added to these instead. Plates were then incubated at 37° C. with 5% CO2 for 72 h. At the end of the incubation time, any reduction in cell viability was assayed and a cell-based enzyme linked immunosorbent assay (ELISA) was performed. The media/compound was removed from all wells and replaced with 100 μl/well serum-free media and 20 μl/well Cell Titre Blue (Promega G8081). Following incubation at 37° C./5% CO2 for 2 h plates were read on a microplate fluorometer (Molecular Devices) using an excitation of 570 nm and an emission of 590 nm The TD50, the concentration of drug required to reduce 50% of Cell Titre Blue relative to the DMSO controls, was calculated by plotting the fluorescence at 590 nm after substraction of background against drug concentration.
# The media/Cell Titre Blue was removed and plates washed in PBS and gently tapped dry before addition of 50 μL per well of 75% acetone/25% methanol mixture for 3 minutes. The fixative was then discarded and wells were washed with PBS before addition of 100 μl/well of blocking solution (2% non-fat dry milk and 0.05% Tween-20 in 0.85% NaCl). Plates were then incubated at 37° C. in a shaking incubator for 60 min. Blocking solution was discarded and 50 μl of mouse anti-NS5a antibody (Virostat 1877) at 1:100 dilution in blocking buffer was added to all wells. Plates were incubated at 37° C. in a shaking incubator for 90 min Antibody was then discarded and plates were washed 4 times by immersion in 0.85% NaCl/0.05% Tween-20. After washing plates were tapped dry gently and 50 μl of secondary antibody (Dako P0260 Rabbit anti-mouse horseradish peroxidase) at 1:1000 dilution in blocking buffer was added to the wells. Plates were incubated at 37° C. in a shaking incubator for 60 min. Antibody was discarded and plates were washed 6 times by immersion in 0.85% NaCl/0.05% Tween-20 and once in PBS. Finally, 50 μl of substrate (SigmaFast ortho-phenylene diamine dihydrochloride (OPD)) was added per well and the colorimetric reaction was allowed to proceed in the dark for 5 to 15 minutes depending on the strength or the signal. The reaction was stopped by addition of 25 μl/well of 20% sulphuric acid. Plates were read on the SpectraMax microplate reader at 490 nm fixed wavelength. […]
# [2] = system: HCV replicon cells Huh 9B (genotype 1b); assay: 1b Replicon Assay (luciferase readout); assay type: cell-based; details: Hepatitis C virus, Huh 9B replicon cells, 72 h, luciferase activity
# Protocol: HCV replicon cells Huh 9B (ReBlikon), containing the firefly luciferase-ubiquitin-neomycin phosphotransferase fusion protein and EMCV-IRES driven HCV polyprotein with cell culture adaptive mutations.
# Cells were cultured at 37° C./5% CO2 and split twice a week. G418 at 0.5 mg/ml was added to the culture medium but not the assay medium.
# The culture medium consisted of DMEM with […] glucose and Glutamax (Gibco 61965-026) supplemented with 1× non-essential amino acids (Invitrogen 11140-035), 0.5 mg/ml G418 (Invitrogen 10131-027) and 10% Australian foetal calf serum (Invitrogen 10099-141).
# Replicon cells were trypsinised and counted. Cells were diluted to 100,000 cells/ml and 100 μl used to seed one opaque white 96-well plate (for the replicon assay) and one flat-bottomed clear plate (for the tox assay) for every five compounds to be tested for IC50. Wells G12 and H12 were left empty in the clear plate as the blank. Plates were then incubated at 37° C./5% CO2 for 24 h.
# On the following day compound dilutions were prepared in medium at twice their desired final concentration in a clear round bottomed plate. All dilutions have a final DMSO concentration of 1%.
# Controls and compounds were transferred from the dilution plates to the assay plates (containing the cells) at 100 μl/well in duplicate wells.
# Exception: no compound was added to wells A1 and A2 of either plate and 100 μl of 1% DMSO was added to these instead. Plates were then incubated at 37° C./5% CO2 for 72 h.
# At the end of the incubation time, the cells in the white plate were washed in PBS (100 μL per well) and dried by tapping before addition of 204 per well of lysis buffer (25 mM tris-phosphate, 8 mM MgCl2, 1 mM DTT, 1% Triton X-100, 15% glycerol; pH to 7.8 using KH2PO4 prior to Triton X-100 and glycerol addition). Aliquots of substrate (23.5 mM beetle luciferin (Promega E1603), 26 mM ATP (Sigma O-2060) in […] Tris buffer pH 7.8) were stored at −80° C. Prior to use, required amount of luciferin was thawed and diluted 1:50 in luciferase assay buffer (20 mM Tricine (Sigma T-0377), 1.07 mM magnesium carbonate hydroxide (Sigma M-5671), 0.1 mM EDTA (Sigma E-5134), 2.67 mM MgSO4(BDH 101514Y), 33.3 mM dithiothreitol (Sigma 150460) pH 7.8).
# After 5-60 min incubation in lysis buffer at room temperature, a plate was inserted into the luminometer and 100 μl luciferase assay reagent was added by the injector of the luminometer. The signal was measured using a 1 second delay followed by a 4 second measurement programme. The IC50, the concentration of the drug required for reducing the replicon level by 50% in relation to the untreated cell control value, was calculated from the plot of the percentage reduction of the luciferase activity vs. drug concentration.
# [3] = read-out: pIC50 1a Replicon (converted)
# [4] = read-out: pIC50 1b Replicon (converted)
structure (smiles),measurement,setting,value
"CCN(CC)[C@@H](C(=O)N1CCC[C@H]1c1ncc(-c2cccc(-c3ccc(C(=O)Nc4ccc(CN5CCS(=O)(=O)CC5)cc4)cc3)c2)[nH]1)c1ccccc1 [Example 38, 4-[3-[2-[(2S)-1-[(2R)-2-(diethylamino)-2-phenyl-acetyl]pyrrolidin-2-yl]-1H-imidazol-5-yl]phenyl]-N-[4-[(1,1-dioxo-1,4-thiazinan-4-yl)methyl]phenyl]benzamide]",IC50,[1]; read-out: HCV IC50 Elisa 1a,314 nM
same,IC50,[1]; [3],316 nM
same,IC50,[2]; read-out: HCV IC50 1b Replicon,2.87 nM
same,IC50,[2]; [4],2.88 nM
"CN(C)[C@@H](C(=O)N1CCC[C@H]1c1ncc(-c2cccc(-c3ccc(C(=O)Nc4ccc(CN5CCS(=O)(=O)CC5)cc4)cc3)c2)[nH]1)c1ccccc1 [Example 39, 4-[3-[2-[(2S)-1-[(2R)-2-(dimethylamino)-2-phenyl-acetyl]pyrrolidin-2-yl]-1H-imidazol-5-yl]phenyl]-N-[4-[(1,1-dioxo-1,4-thiazinan-4-yl)methyl]phenyl]benzamide]",IC50,[1]; read-out: HCV IC50 Elisa 1a,1100 nM
same,IC50,[1]; [3],1100 nM
same,IC50,[2]; read-out: HCV IC50 1b Replicon,4.81 nM
same,IC50,[2]; [4],4.79 nM
"CCCS(=O)(=O)N1CCN(Cc2ccc(NC(=O)c3ccc(-c4ccc(-c5cnc([C@@H]6CCCN6C(=O)[C@H](C)NC(=O)OC)[nH]5)cc4)cc3)cc2)CC1 [Example 41, Methyl N-[(1S)-1-methyl-2-oxo-2-[(2S)-2-[5-[4-[4-[[4-[(4-propylsulfonylpiperazin-1-yl)methyl]phenyl]carbamoyl]phenyl]phenyl]-1H-imidazol-2-yl]pyrrolidin-1-yl]ethyl]carbamate]",IC50,[1]; read-out: HCV IC50 Elisa 1a,47 nM
same,IC50,[1]; [3],46.8 nM
same,IC50,[2]; read-out: HCV IC50 1b Replicon,1.15 nM
same,IC50,[2]; [4],1.15 nM
"CCCS(=O)(=O)N1CCN(Cc2ccc(NC(=O)c3ccc(-c4ccc(-c5cnc([C@@H]6CCCN6C(=O)[C@@H](NC(=O)OC)c6ccccc6)[nH]5)cc4)cc3)cc2)CC1 [Example 42, Methyl N-[(1S)-2-oxo-1-phenyl-2-[(2S)-2-[5-[4-[4-[[4-[(4-propylsulfonylpiperazin-1-yl)methyl]phenyl]carbamoyl]phenyl]phenyl]-1H-imidazol-2-yl]pyrrolidin-1-yl]ethyl]carbamate]",IC50,[1]; read-out: HCV IC50 Elisa 1a,97.4 nM
same,IC50,[1]; [3],97.7 nM
same,IC50,[2]; read-out: HCV IC50 1b Replicon,0.05 nM
same,IC50,[2]; [4],0.0537 nM
"CCCS(=O)(=O)N1CCN(Cc2ccc(NC(=O)c3ccc(-c4ccc(-c5cnc([C@@H]6CCCN6C(=O)[C@H](NC(=O)OC)c6ccccc6)[nH]5)cc4)cc3)cc2)CC1 [Example 43, Methyl N-[(1R)-2-oxo-1-phenyl-2-[(2S)-2-[5-[4-[4-[[4-[(4-propylsulfonylpiperazin-1-yl)methyl]phenyl]carbamoyl]phenyl]phenyl]-1H-imidazol-2-yl]pyrrolidin-1-yl]ethyl]carbamate]",IC50,[1]; read-out: HCV IC50 Elisa 1a,77.7 nM
same,IC50,[1]; [3],77.6 nM
same,IC50,[2]; read-out: HCV IC50 1b Replicon,0.05 nM
same,IC50,[2]; [4],0.055 nM
"CCCS(=O)(=O)N1CCN(Cc2ccc(NC(=O)c3ccc(-c4ccc(-c5cnc([C@@H]6CCCN6C(=O)[C@@H](c6ccccc6)N(CC)CC)[nH]5)cc4)cc3)cc2)CC1 [Example 44, 4-[4-[2-[(2S)-1-[(2R)-2-(diethylamino)-2-phenyl-acetyl]pyrrolidin-2-yl]-1H-imidazol-5-yl]phenyl]-N-[4-[(4-propylsulfonylpiperazin-1-yl)methyl]phenyl]benzamide]",IC50,[1]; read-out: HCV IC50 Elisa 1a,50.5 nM
same,IC50,[1]; [3],50.1 nM
same,IC50,[2]; read-out: HCV IC50 1b Replicon,0.01 nM
same,IC50,[2]; [4],0.0145 nM
"CCCS(=O)(=O)N1CCN(Cc2ccc(NC(=O)c3ccc(-c4ccc(-c5cnc([C@@H]6CCCN6C(=O)[C@@H](c6ccccc6)N(C)C)[nH]5)cc4)cc3)cc2)CC1 [Example 45, 4-[4-[2-[(2S)-1-[(2R)-2-(dimethylamino)-2-phenyl-acetyl]pyrrolidin-2-yl]-1H-imidazol-5-yl]phenyl]-N-[4-[(4-propylsulfonylpiperazin-1-yl)methyl]phenyl]benzamide]",IC50,[1]; read-out: HCV IC50 Elisa 1a,79.5 nM
same,IC50,[1]; [3],79.4 nM
same,IC50,[2]; read-out: HCV IC50 1b Replicon,0.03 nM
same,IC50,[2]; [4],0.0263 nM
"COC(=O)N[C@H](C(=O)N1CCCC[C@H]1c1ncc(-c2ccc(-c3ccc(C(=O)Nc4ccc(CN5CCS(=O)(=O)CC5)cc4)cc3)cc2)[nH]1)C(C)C [Example 50, methyl N-[(1S)-1-[(2S)-2-[5-[4-[4-[[4-[(1,1-dioxo-1,4-thiazinan-4-yl)methyl]phenyl]carbamoyl]phenyl]phenyl]-1H-imidazol-2-yl]piperidine-1-carbonyl]-2-methyl-propyl]carbamate]",IC50,[1]; read-out: HCV IC50 Elisa 1a,28.2 nM
same,IC50,[1]; [3],28.2 nM
same,IC50,[2]; read-out: HCV IC50 1b Replicon,2.98 nM
same,IC50,[2]; [4],2.95 nM
"COC(=O)N[C@H](C(=O)N1CCCC[C@H]1c1ncc(-c2ccc(-c3ccc(C(=O)Nc4ccc(CN5CCS(=O)(=O)CC5)cc4)cc3)cc2)[nH]1)c1ccccc1 [Example 51, Methyl N-[(1S)-2-[(2S)-2-[5-[4-[4-[[4-[(1,1-dioxo-1,4-thiazinan-4-yl)methyl]phenyl]carbamoyl]phenyl]phenyl]-1H-imidazol-2-yl]-1-piperidyl]-2-oxo-1-phenyl-ethyl]carbamate]",IC50,[1]; read-out: HCV IC50 Elisa 1a,95 nM
same,IC50,[1]; [3],95.5 nM
same,IC50,[2]; read-out: HCV IC50 1b Replicon,0.79 nM
same,IC50,[2]; [4],0.794 nM
"CC(C)(C)OC(=O)N[C@H](C(=O)N1CCCC[C@H]1c1ncc(-c2ccc(-c3ccc(C(=O)Nc4ccc(CN5CCS(=O)(=O)CC5)cc4)cc3)cc2)[nH]1)c1ccccc1 [Example 52, tert-Butyl N-[(1S)-2-[(2S)-2-[5-[4-[4-[[4-[(1,1-dioxo-1,4-thiazinan-4-yl)methyl]phenyl]carbamoyl]phenyl]phenyl]-1H-imidazol-2-yl]-1-piperidyl]-2-oxo-1-phenyl-ethyl]carbamate]",IC50,[1]; read-out: HCV IC50 Elisa 1a,185 nM
same,IC50,[1]; [3],186 nM
same,IC50,[2]; read-out: HCV IC50 1b Replicon,0.41 nM
same,IC50,[2]; [4],0.407 nM
